Here are results for two compounds from patent publication US20260364124A1, “ANTI-C. DIFFICILE SMALL MOLECULE METABOLITES FROM DIET AND GUT MICROBIOME” (The Children's Medical Center Corporation, priority 2023, published 2026).

For one experiment, the system named is B. uniformis. Description: In vitro aglycone liberation by wildtype B. uniformis (LC-MS). Further details: species or system Bacteroides uniformis ATCC 8492. Particulars: role: product; B. uniformis culture supplemented with glycoside, after eight hours, LC-MS EIC (FIG. 2). From the text:
Comparative LC-MS EICs (Extracted Ion Chromatogram) of methanol-water extracts of bacterial cultures supplemented with each polyphenolic glycoside after eight hours are provided. The trace labeled “A” corresponds to the EIC of each glycoside, and the trace labeled “B” corresponds to the EIC of each aglycone. The portion of the trace “B” peak overlapping the trace “A” peak corresponds to the aglycone detected from fragmentation of the glycoside at the ionization source and is a technical artifact.
FIGS. 5A and 5B show microbiome-mediated polyphenol aglycone liberation. […] Step 2: Spent media was filter-sterilized. Step 3: C. difficile was grown in spent media from either vehicle or polydatin (top).
In vitro aglycone liberation: All B. uniformis strains were grown on brain-heart-infusion supplemented with hemin (50 mg/L) and vitamin K1 (0.25 mg/L) (BHIS) agar plates or in basal media (BSG; proteose peptone (20 g/L), yeast (5 g/L), NaCl (5 g/L), glucose (5 g/L), potassium phosphate dibasic (5 g/L), cysteine (0.5 g/L), hemin (50 mg/L), and vitamin K1 (0.25 mg/L). All isolates were recovered on and grown in pre-reduced media in a Coy anaerobic chamber (Coy Labs).
To assess the capacity of Bacteroides to liberate aglycones from their parent polyphenolic glycosides, B. uniformis ATCC 8492 WT and AgshD were recovered on a BHIS agar plate and incubated anaerobically at 37 °C for 48 h. A starter culture (1 mL) of BSG was inoculated with each isolate and grown for 15 h. This starter culture was then used to inoculate a BSG sub-culture (1 mL) at a final dilution of 1:10. […]
For polyphenolic glycoside and aglycone-containing samples, samples were dried under nitrogen flow and resuspended in 50 μl of methanol 50% in water. […] Samples were quantified on a QEplus mass spectrometer coupled to an Ultimate 3000 LC (Thermo fisher). […] Quantification was performed using Tracefinder (Thermo fisher), using the ratio of the area under the peak for each compound and of the internal standard, using the accurate mass of the [M−H]^− ions.

In experiment [1] the test system is C. difficile. Put plainly: Phytochemical microbial killing assay, panel of gut bacterial pathogens. It counts as cell-based, Clostridioides difficile. Particulars: 150 μM, media with glucose, growth ratio (AUC) vs vehicle, panel of gut bacterial pathogens (FIG. 3A). On the procedure: Growth is measured as the ratio of growth in media (AUC) supplemented with glucose and 150 μM glycoside or aglycone versus growth in media (AUC) supplemented with glucose and vehicle. Value>1 is representative of enhanced growth in compound and value<1 is representative of inhibition of growth in compound.
Phytochemical microbial killing assays: All gut pathogen isolates were grown on brain-heart-infusion supplemented with hemin (50 mg/L) and vitamin K1 (0.25 mg/L) (BHIS) agar plates or in basal media (BSG; proteose peptone (20 g/L), yeast (5 g/L), NaCl (5 g/L), glucose (5 g/L), potassium phosphate dibasic (5 g/L), cysteine (0.5 g/L), hemin (50 mg/L), and vitamin K1 (0.25 mg/L). Isolates were recovered on and grown in pre-reduced media in a Coy anaerobic chamber (Coy Labs). To determine the fitness effects of phloridzin hydrate (TCI), phloretin (TCI), polydatin (TCI), and resveratrol (TCI) on enteric pathogen fitness, each pathogen isolate was recovered on a BHIS agar plate and incubated anaerobically at 37 °C for 48 h. A starter culture (1 mL) of BSG was inoculated with C. difficile and grown for 15 h. […] Bacterial growth was monitored by measuring the optical density at 600 nm (OD600) of each culture in a 384 well plate with an Epoch2 spectrophotometer (BioTek Instruments) and MicroPlate stacker (Agilent BioTek) for 24 hours.

Experiment [2] relates to C. difficile. Description: C. difficile infection (CDI) mouse model, C. difficile burden (CFU). It counts as in vivo, mouse (C57BL/6J) infected with Clostridioides difficile. Particulars: infected mice; for anti-microbial effect on C. difficile in vivo: 500 μM in drinking water, CFU at day one and day two (FIG. 3C); for C. difficile burden in vivo: pure compound administered (FIGS. 6A-6B). On the procedure: (§1) FIG. 3B provides a heatmap of growth of 20 Clostridioides difficile isolates in the absence of presence of the polyphenolic glycoside polydatin or the Bacteroides liberated aglycone resveratrol. […] Growth induction or inhibition is measured as the ratio of growth in media (AUC) supplemented with glucose and 150 μM polydatin or resveratrol versus growth in media (AUC) supplemented with glucose and vehicle. Value>1 is representative of enhanced growth in compound and value <1 is representative of inhibition of growth in compound.
C. difficile infection (CDI) model: An antibiotic-treatment-induced CDI mouse model developed previously was used for the infection model. Briefly, six-to eight-week-old male and female SPF C57BL/6J WT mice were treated for three days with a mixture of antibiotics including vancomycin (0.4 mg/mL, Sigma) colistin (850 U/mL, Sigma), metronidazole (0.215 mg/mL, Sigma), gentamicin (0.035 mg/mL, RPI), and kanamycin (0.045 mg/mL, Sigma) in their drinking water. Mice were then treated with regular water for two days and then injected intraperitoneal (IP) with clindamycin (10 mg/kg, Mylan Pharmaceuticals) in normal saline. After one day, mice were gavaged with […] of C. difficile M7404 diluted in PBS. Stool was collected from mice at one day and two days post infection, and immediately taken for assessment of C. difficile infection load.
C. difficile colony-forming units (CFUs): Mouse feces were collected from mice on day one and day two of C. difficile infection. Feces were weighed and resuspended to 50 mg/mL in pre-reduced 1× PBS. CFUs were enumerated by plating multiple dilutions on pre-reduced commercial ChromID C. difficile -selective plates (Biomerieux) after incubation for 24 hours at 37 °C in an anaerobic chamber (Coy Labs).

A further experiment concerns C. difficile isolates. Put plainly: Phytochemical microbial killing assay, diverse C. difficile isolates. It counts as cell-based, Clostridioides difficile. On the procedure: as §1
Bacterial isolates were grown in vitro in media plus compound. Killing was measured by bacterial culture optical density (proxy for amount of bacteria in a culture).
Phytochemical microbial killing assays: All gut pathogen isolates were grown on brain-heart-infusion supplemented with hemin (50 mg/L) and vitamin K1 (0.25 mg/L) (BHIS) agar plates or in basal media (BSG; proteose peptone (20 g/L), yeast (5 g/L), NaCl (5 g/L), glucose (5 g/L), potassium phosphate dibasic (5 g/L), cysteine (0.5 g/L), hemin (50 mg/L), and vitamin K1 (0.25 mg/L). Isolates were recovered on and grown in pre-reduced media in a Coy anaerobic chamber (Coy Labs). To determine the fitness effects of phloridzin hydrate (TCI), phloretin (TCI), polydatin (TCI), and resveratrol (TCI) on enteric pathogen fitness, each pathogen isolate was recovered on a BHIS agar plate and incubated anaerobically at 37 °C for 48 h. A starter culture (1 mL) of BSG was inoculated with C. difficile and grown for 15 h. This starter culture was then used to inoculate a BSG sub-culture (1 mL) at a final dilution of 1:10. This sub-culture was grown for 3 h to an OD600~0.5 before being used to inoculate experimental cultures at a final dilution of 1:50. The experimental media consisted of a modified YCFA media (mYCFA; casitone (2.5 g/L), yeast extract (0.625 g/L), cysteine (0.5 g/L), magnesium sulfate heptahydrate (f.c. 365 μM), calcium chloride dihydrate (f.c. 610 μM), sodium bicarbonate (4 g/L), dipotassium phosphate (0.45 g/L), monopotassium phosphate (0.45 g/L), sodium chloride (0.9 g/L), sodium acetate (2.71 g/L), Hemin (50 mg/L), Vitamin K1 (0.25 mg/L), ferrous sulfate (4 μg/mL), ATCC vitamin mix (1% v/v)) supplemented with glucose (15 mM, Sigma) plus each compound (150 μM) or glucose (15 mM, Sigma) plus DMSO (0.15%, Sigma). Bacterial growth was monitored by measuring the optical density at 600 nm (OD600) of each culture in a 384 well plate with an Epoch2 spectrophotometer (BioTek Instruments) and MicroPlate stacker (Agilent BioTek) for 24 hours.

Entries after “also recorded” stand apart in the source; their conditions may differ.

As for `O=C(CCc1ccc(O)cc1)c1c(O)cc(O)cc1O` [phloretin], in the experiment with B. uniformis, the “liberation of aglycone from polyphenolic glycoside” value is “liberates phloretin and resveratrol from their natural prodrugs in vitro”. In the experiment on C. difficile [1], the “selective killing of C. difficile” value is listed as “selectively kill the enteric pathogen C. difficile; also recorded: selectively kill hypervirulent C. difficile”. For the same compound, in the experiment with C. difficile [2], the “anti-microbial effect on C. difficile in vivo” value is “potent anti-microbial effects on C. difficile in vivo” and the “C. difficile burden in vivo” value is on record as “decreases C. difficile burden”.

Take `Oc1ccc(C=Cc2cc(O)cc(O)c2)cc1` [resveratrol]: in the experiment on B. uniformis, the “liberation of aglycone from polyphenolic glycoside” value is “liberates phloretin and resveratrol from their natural prodrugs in vitro”. In the experiment with C. difficile [1], the “selective killing of C. difficile” value is reported as “selectively kill the enteric pathogen C. difficile; also recorded: selectively kill hypervirulent C. difficile”. Besides, in the experiment with C. difficile isolates (150 μM, 20 C. difficile isolates, growth ratio (AUC) vs vehicle (FIG. 3B)), the “growth inhibition of Clostridioides difficile” value is on record as “showed growth inhibition of Clostridioides difficile; also recorded: universally anti-microbial against C. difficile”. The “killing / growth inhibition of diverse C. difficile isolates” value in the experiment on C. difficile isolates (in vitro, media plus compound, culture optical density (FIG. 4)) is on record as “kills many diverse C. difficile isolates; also recorded: showed growth inhibition of C. difficile”. Also, in the experiment with C. difficile [2], the “anti-microbial effect on C. difficile in vivo” value is “potent anti-microbial effects on C. difficile in vivo” and the “C. difficile burden in vivo” value is “decreases C. difficile burden”.
